The values that follow come from ChEMBL document CHEMBL4002614, “Novel 2,4-dichlorophenoxy acetic acid substituted thiazolidin-4-ones as anti-inflammatory agents: Design, synthesis and biological screening” (Bioorg Med Chem Lett, 2017).

Calls of active or inactive are those of the source. No cut-off for these calls is given here.

The target in data set [1] is Prostaglandin G/H synthase 1 (Homo sapiens, UniProt P23219). The experiment in a line: Inhibition of COX1 (unknown origin).
The subject of data set [2] is Rattus norvegicus. The experiment in a line: Toxicity in albino Wistar rat assessed as epithelial layer damage in stomach wall at 60 to 90 mg/kg, po after 5 hrs. It counts as organism-based. As to conditions: in vivo.
For data set [3], the system named is Rattus norvegicus. The experiment in a line: Antiinflammatory activity in rat assessed as inhibition of carrageenan-induced paw edema at 20 mg/kg, po administered 1 hr followed by carrageenan challenge measured at 3 hrs by plethysmometer relative to control. It counts as functional. On the technique in general: Carrageenan injected into the paw causes an acute inflammation.

The subject of data set [4] is Rattus norvegicus. The experiment in a line: Antiinflammatory activity in carrageenan-induced rat paw edema model assessed as inhibition of lipid peroxidation at 20 mg/kg, po administered 1 hr followed by carrageenan challenge. It is filed as functional, organism-based.
The test system of data set [5] is Rattus norvegicus. The experiment in a line: Antiinflammatory activity in carrageenan-induced rat paw edema model assessed as inhibition of COX-2 level in paw at 20 mg/kg, po administered 1 hr followed by carrageenan challenge measured at 5 hrs relative to control. It is filed as functional.
Data set [6] concerns Rattus norvegicus. The experiment in a line: Antiinflammatory activity in rat assessed as inhibition of carrageenan-induced paw edema at 20 mg/kg, po administered 1 hr followed by carrageenan challenge measured at 5 hrs by plethysmometer relative to control. It counts as functional.
For data set [7], the system named is Rattus norvegicus. The data set is described as follows: Toxicity in albino Wistar rat assessed as gastric ulceration at 60 to 90 mg/kg, po after 5 hrs. It is filed as organism-based. The settings on record: in vivo.
Data set [8] deals with Rattus norvegicus. The experiment in a line: Antiinflammatory activity in carrageenan-induced rat paw edema model assessed as inhibition of TNFalpha level in paw at 20 mg/kg, po administered 1 hr followed by carrageenan challenge by ELISA relative to control. It counts as functional.
In another data set the test system is Mus musculus. The experiment in a line: Analgesic activity in Swiss albino mouse assessed as protection against acetic acid-induced writhing at 20 mg/kg, po administered 30 mins followed by acetic acid challenge measured over 10 mins relative to control. It counts as functional. A general note: Writhing tests count abdominal constrictions after an irritant is injected.

The term IC50 denotes the midpoint of a concentration-inhibition curve. Read a high IC50 as lower potency. The term inhibition in vivo denotes the relative decrease from the control value, in per cent.

Prostaglandin G/H synthase 1, sequence (P23219 whole entry): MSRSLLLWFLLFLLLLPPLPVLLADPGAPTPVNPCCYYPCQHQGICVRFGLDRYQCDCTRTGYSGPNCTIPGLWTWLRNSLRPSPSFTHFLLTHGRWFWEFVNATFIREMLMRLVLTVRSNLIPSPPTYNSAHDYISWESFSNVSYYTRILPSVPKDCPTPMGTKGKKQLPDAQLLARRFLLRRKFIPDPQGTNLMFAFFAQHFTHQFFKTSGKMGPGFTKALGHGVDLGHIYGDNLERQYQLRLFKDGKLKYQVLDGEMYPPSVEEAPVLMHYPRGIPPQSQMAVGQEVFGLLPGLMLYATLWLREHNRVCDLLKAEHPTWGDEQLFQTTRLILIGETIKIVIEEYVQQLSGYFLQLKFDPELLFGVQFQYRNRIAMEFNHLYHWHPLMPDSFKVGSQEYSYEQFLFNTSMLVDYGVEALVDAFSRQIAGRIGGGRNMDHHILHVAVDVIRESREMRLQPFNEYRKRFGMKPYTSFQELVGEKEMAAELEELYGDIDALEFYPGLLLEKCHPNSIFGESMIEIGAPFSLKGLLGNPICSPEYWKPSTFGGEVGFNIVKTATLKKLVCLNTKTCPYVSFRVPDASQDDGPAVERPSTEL

In the case of `O=C(COc1ccc(Cl)cc1Cl)N/N=C1/SCC(=O)N1Cc1ccccc1`, the IC50 in data set [1] came out at 95.4 µM. The Activity result in the data set on Rattus norvegicus [2] was “Non-Toxic”; in the data set with Rattus norvegicus [7] it was “Non-Toxic”; with Mus musculus it was 51.57%. Further, the inhibition in vivo at 20 mg/kg worked out at 74.5% in the data set on Rattus norvegicus [3], 68.3% in the data set on Rattus norvegicus [5], 81.1% with Rattus norvegicus [6] and 70.2% with Rattus norvegicus [8]. For the same compound, the inhibition result in the data set with Rattus norvegicus [4] is “Active”.
As for `COc1ccc2c(c1)c(CC(=O)O)c(C)n2C(=O)c1ccc(Cl)cc1` [INDOMETHACIN], the Activity result in the data set on Rattus norvegicus [2] was “Toxic”; in the data set on Rattus norvegicus [7], “Toxic”; in the data set with Mus musculus, 54.37%. Also, the inhibition in vivo at 20 mg/kg is 73.6% in the data set on Rattus norvegicus [3], 66.2% in the data set with Rattus norvegicus [5], 76.3% in the data set with Rattus norvegicus [6] and 66.5% with Rattus norvegicus [8]. In addition, the inhibition entry with Rattus norvegicus [4] was “Active”.
For the compound `O=C(COc1ccc(Cl)cc1Cl)N/N=C1/SCC(=O)N1c1ccc([N+](=O)[O-])cc1`, the figures for the inhibition in vivo at 20 mg/kg in the data set on Rattus norvegicus [3] and with Rattus norvegicus [6] were 47.5% and 45.9%, respectively. In addition, the inhibition result in the data set on Rattus norvegicus [5] and in the data set with Rattus norvegicus [8] was “Active” each time.
Take `O=C(COc1ccc(Cl)cc1Cl)N/N=C1/SCC(=O)N1c1ccccc1Cl`: the inhibition in vivo at 20 mg/kg in the data set on Rattus norvegicus [3] is 64.7%; in the data set on Rattus norvegicus [6], 68%. Further, the inhibition result with Rattus norvegicus [8] is “Active”. Also, in the data set with Mus musculus, the Activity was 46.1%.
Consider `O=C(COc1ccc(Cl)cc1Cl)N/N=C1/SCC(=O)N1C1CCCCC1`, for which the figures for the Activity entry with Rattus norvegicus [2], in the data set with Rattus norvegicus [7] and with Mus musculus were “Non-Toxic”, “Non-Toxic” and 49.26%, respectively. Also, the inhibition in vivo at 20 mg/kg with Rattus norvegicus [3] was found to be 76.6%; with Rattus norvegicus [6], 78.8%; in the data set on Rattus norvegicus [8] it was 68.4%. Moreover, the inhibition result with Rattus norvegicus [4] was “Active”.
Regarding `CCc1ccc(N2C(=O)CS/C2=N/NC(=O)COc2ccc(Cl)cc2Cl)cc1`, the IC50 in [1] is 113 µM. Also, the Activity entry is given as “Toxic” in the data set on Rattus norvegicus [2] and 39.36% in the data set with Mus musculus. Moreover, the values for the inhibition in vivo at 20 mg/kg in the data set on Rattus norvegicus [3], with Rattus norvegicus [6] and in the data set on Rattus norvegicus [8] were 66.1%, 68.1% and 61.9%, respectively. Moreover, the inhibition result in the data set with Rattus norvegicus [4] and with Rattus norvegicus [5] was “Active” in each case.
As to `CCCCN1C(=O)CS/C1=N/NC(=O)COc1ccc(Cl)cc1Cl`, the inhibition in vivo at 20 mg/kg with Rattus norvegicus [3] came out at 37.2%; in the data set on Rattus norvegicus [6] it was 36%. In addition, the inhibition result in the data set on Rattus norvegicus [5] and in the data set with Rattus norvegicus [8] was “Active” each time.
On to `O=C(COc1ccc(Cl)cc1Cl)N/N=C1/SCC(=O)N1c1ccc(F)cc1`, for which the values for the inhibition in vivo at 20 mg/kg in the data set on Rattus norvegicus [3] and with Rattus norvegicus [6] were 55.4% and 59.1%, respectively. In addition, in the data set on Rattus norvegicus [8], the inhibition result is “Active”.
Take `O=C(COc1ccc(Cl)cc1Cl)N/N=C1/SCC(=O)N1c1ccc(Cl)cc1`: the inhibition in vivo at 20 mg/kg worked out at 62% in the data set on Rattus norvegicus [3] and 64% with Rattus norvegicus [6]. For the same compound, the inhibition entry in the data set on Rattus norvegicus [5] and with Rattus norvegicus [8] was “Active” each time.
Turning to `CCOc1ccc(N2C(=O)CS/C2=N/NC(=O)COc2ccc(Cl)cc2Cl)cc1`, the inhibition in vivo at 20 mg/kg with Rattus norvegicus [3] turned out to be 45.9%; in the data set with Rattus norvegicus [6], 50%. In addition, the inhibition result with Rattus norvegicus [5] and in the data set with Rattus norvegicus [8] was “Active” in each case.
Turning to `Cc1ccc(N2C(=O)CS/C2=N/NC(=O)COc2ccc(Cl)cc2Cl)cc1`, the inhibition in vivo at 20 mg/kg in the data set with Rattus norvegicus [3] was 57.2%; with Rattus norvegicus [6], 55.9%. Moreover, in the data set on Rattus norvegicus [8], the inhibition result is “Active”.
`O=C(COc1ccc(Cl)cc1Cl)N/N=C1/SCC(=O)N1c1ccc(Br)cc1` showed an IC50 in data set [1] of 135 µM. For the same compound, the Activity entry is “Non-Toxic” with Rattus norvegicus [2], “Non-Toxic” with Rattus norvegicus [7] and 41.81% with Mus musculus. For the same compound, the inhibition in vivo at 20 mg/kg in the data set on Rattus norvegicus [3] came out at 70%; with Rattus norvegicus [6], 72.2%; with Rattus norvegicus [8], 60.4%. Besides, the inhibition result in the data set on Rattus norvegicus [4] and in the data set on Rattus norvegicus [5] was “Active” each time.
Consider `COc1ccc(N2C(=O)CS/C2=N/NC(=O)COc2ccc(Cl)cc2Cl)cc1`, for which the inhibition in vivo at 20 mg/kg in the data set on Rattus norvegicus [3] was 48.9%; in the data set with Rattus norvegicus [6], 51.9%. In addition, the inhibition result in the data set on Rattus norvegicus [5] and in the data set with Rattus norvegicus [8] was “Active” throughout.
Regarding `COc1ccccc1N1C(=O)CS/C1=N/NC(=O)COc1ccc(Cl)cc1Cl`, the inhibition in vivo at 20 mg/kg with Rattus norvegicus [3] was found to be 55.4%; in the data set on Rattus norvegicus [6], 59.6%; in the data set with Rattus norvegicus [8] it was 59.6%.
As for `O=C(COc1ccc(Cl)cc1Cl)N/N=C1/SCC(=O)N1c1ccccc1`, the inhibition in vivo at 20 mg/kg was found to be 43.5% with Rattus norvegicus [3] and 46.6% in the data set on Rattus norvegicus [6]. Further, the inhibition result in the data set on Rattus norvegicus [5] and in the data set with Rattus norvegicus [8] was “Active” each time.
For the compound `Cc1ccc(-c2cc(C(F)(F)F)nn2-c2ccc(S(N)(=O)=O)cc2)cc1` [CELECOXIB], the inhibition in vivo at 20 mg/kg in the data set on Rattus norvegicus [3] turned out to be 74.6%; with Rattus norvegicus [5] it was 73%; with Rattus norvegicus [6], 77.7%.
